Non-standard residues stand in square brackets, D forms with d. Residues, ends and D or L forms follow the SMILES beside them. *: point of attachment. Phenylacetyl(2,3,4,5,6-F5) = O=C(Cc1c(F)c(F)c(F)c(F)c1F)*; Phe(F5) = N[C@@H](Cc1c(F)c(F)c(F)c(F)c1F)C(=O)O; Phe(4-Cl) = N[C@@H](Cc1ccc(Cl)cc1)C(=O)O; hArg = N=C(N)NCCCC[C@H](N)C(=O)O; 12Ado = NCCCCCCCCCCCC(=O)O; Nle = CCCC[C@H](N)C(=O)O; Abu = CC[C@H](N)C(=O)O
Key:
[1] = test system: J82 urothelial cancer cells; test: In vitro cell viability, J82; assay type: cell-based, human; conditions: antagonist 5 μM for 72 h, cell proliferation assay; MIA602 = 1
Description: (§1) The inhibitory effects of the various synthesized GHRH antagonists were tested in cell proliferation assays in various human cancer cell lines including stomach cancer (KATOIII, N87), colon cancer (HT-29), urothelial cancer (J82, RT4), pancreatic cancer (PANC-1, CFPAC-1), prostatic cancer (PC3), breast cancer (MX-1, HCC1806), ovarian cancer (SK-OV-3, OVCAR-3) and lung cancer (HCC827, H460).
(§2) Cell culture. Human cancer cell lines including pancreatic (PANC-1 and CFPAC-1), lung (HCC827 and H460), stomach (NCI-N87 and KATOIII), urothelial (J82, RT4), prostatic (PC3), breast (MX-1 and HCC 1806), colorectal (HT-29), and ovarian (SK-OV-3 and OVCAR-3) were obtained from the American Type Culture Collection (ATCC) and cultured at 37° C. in a humidified 95% air/5% CO2 atmosphere in the medium recommended by ATCC.
(§3) In vitro cell viability. Cell viability was analyzed as follows: cancer cells including pancreatic (PANC-1 and CFPAC-1), lung (HCC827 and H460), stomach (NCI-N87 and KATOIII), urothelial (J82, RT4), prostatic (PC3) and breast (MX-1 and HCC 1806), colorectal (HT-29) and ovarian (SK-OV-3 and OVCAR-3) were grown on 96 well plates to ˜60% confluence, the cells were starved for 24 h in culture medium containing 0.5% FBS. Cells were then treated with GHRH antagonists MIA602 AVR compounds at concentrations of 1, 2.5 or 5 μM, or vehicle (0.1% DMSO) in quintuplicates for 72 hours. The medium was replaced every 48 hours. Cell viability was measured using CellTiter 96 aqueous one solution kit (Promega). Inhibitory effects of tested AVR compounds in comparison to that of MIA602 are presented as inhibitory potency.
(§4) Inhibitory effects of selected AVR compounds in comparison to that of MIA602 are presented as inhibitory potency (e.g., percentage of inhibition). […] The cell lines tested including lung cancer HCC827 (FIG. 2A), pancreatic cancer CFPAC-1 (FIG. 2B), stomach cancer N87 (FIG. 2C), colon cancer HT-29 (FIG. 2D), breast cancers MX-1 and HCC1806 (FIGS. 2 E, F). Based on the results of cell proliferation assay after cancer cells were treated with antagonist at concentration of 5 μM for 72H, the relative inhibitory potency of AVR antagonists in comparison to MIA-602 is summarized in Table 3 A and B. Over 60 AVR compounds were tested in 12 cancer cell lines.

[2] = test system: pancreatic cancer PANC-1 xenograft; test: Xenograft tumor growth in nude mice, PANC-1; assay type: in vivo; conditions: Table 4A, Pancreatic Ca PANC-1, 7 weeks, 5 μg/day s.c.
Description: (§5) The peptides' activity was compared with GHRH antagonist MIA-602. All statistical analyzses were performed from comparing GHRA antagonists to non-treated tumor (control).
(§6) Peptides and chemicals. GHRH antagonists MIA-602 and AVR-GHRH antagonists (see Table 2 above) were synthesized by solid phase methods and purified by HPLC. The peptides were dissolved in DMSO and further diluted in 10% 1,2-propanediol. The final concentration of peptides was 50 µg/ml in 10% 1,2-propanediol containing 0.1% of DMSO.
(§7) Cell culture. Human cancer cell lines including pancreatic (PANC-1 and CFPAC-1), lung (HCC827 and H460), stomach (NCI-N87), prostate (PC3), brest (MX-1 and HCC-1806), colorectal (HT-29), and ovarian (SK-OV-3 and OVCAR-3) were obtained from the American Type Culture Collection (ATCC) and cultured at 37° C. in a humidified 95% air/5% CO2 atmosphere in the medium recommended by ATCC.
(§8) Xenograft models of human cancers in nude mice. Female athymic (NCr nu/nu) nude mice, 5- to 6-weeks-old, obtained from the Envigo labs (Tampa, Fla.), were housed in laminar airflow cabinets under pathogen-free conditions with a 12-h light/12-h dark schedule, and were fed autoclaved standard chow and water. To generate mice with xenografted tumors, tumor xenografts were initiated by subcutaneous (s.c.) injection of 107 human cancer cells into female nude mice. After about 4 weeks the resulting tumors were dissected and collected after removing necrosis tissues. The tumors were then cut into particles with size of 3 mm3 and transplanted s.c. by trocar needle into experimental animals. When tumors grew to the size of 50-60 mm3 (by volume), mice were randomized into groups and treated daily for 4-8 weeks by subcutaneous administration of 5 μg of GHRH antagonists MIA-602 or AVR-compounds (2-10 μg as indicated), or vehicle solutions (0.1% DMSO in 10% 1,2-propanediol) respectively. Tumor sizes were measured weekly.
(§9) Statistical analysis. One-way ANOVA followed by Bonferroni comparison were performed. Data are expressed as Mean±SEM. To determine statistical significance between animal groups, two-tailed Student's t-test was conducted. Differences were considered significant when p<0.05.
(§10) Results. […] FIG. 1A-N represents in vivo inhibition of tumor growth during the treatment with GHRH antagonist MIA-602 and selected AVR antagonists in nude mice xenografted with various human tumors including pancreatic cancer PANC-1 (FIG. 1A) and CFPAC-1 (FIG. 1I); lung cancer HCC827 (FIGS. 1B, C) and H460 (FIG. 1H); stomach cancer N87 (FIGS. 1D-F); colon cancer HT-29 (FIG. 1G); breast cancer MX-1 and HCC-1806 (FIGS. 1J, K); ovarian cancer SK-OV-3 and OVACAR-3 (FIGS. 1 L, M) and prostate cancer PC3 (FIG. 1N). See also Table 5.

[3] = test system: HCC1806 breast cancer cells; test: In vitro cell viability, HCC1806; assay type: cell-based, human; conditions: Table 3B; 5 μM for 72 H; MIA-602 = 1
Description: as §1, §2, §3, §4
Based on the results of cell proliferation assay after cancer cells were treated with antagonist at concentration of 5 µM for 72H, * at concentration of 2 µM for 72 H.

[4] = test system: breast cancer HCC-1806 xenograft; test: Xenograft tumor growth in nude mice, HCC-1806; assay type: in vivo; conditions: Table 4K, Breast Ca HCC-1806, 5 weeks, 5 μg/day s.c.
Description: as §5, §6, §7, §8, §9, §10

[5] = test system: colon cancer HT-29 xenograft; test: Xenograft tumor growth in nude mice, HT-29; assay type: in vivo; conditions: Table 4G, Colon Ca HT-29, 6 weeks, 5 μg/day s.c.
Description: as §5, §6, §7, §8, §9, §10

Structure (SMILES): CCCC[C@H](NC(=O)[C@@H](NC(=O)[C@H](CC(=O)O)NC(=O)[C@H](CCC(N)=O)NC(=O)[C@H](CC(C)C)NC(=O)[C@H](CC(C)C)NC(=O)[C@H](CCCCN)NC(=O)[C@H](CCCNC(=N)N)NC(=O)[C@H](C)NC(=O)[C@H](CO)NC(=O)[C@H](CC(C)C)NC(=O)[C@H](CCC(N)=O)NC(=O)[C@H](CC)NC(=O)[C@H](CC(C)C)NC(=O)[C@@H](NC(=O)[C@H](CCCCN)NC(=O)[C@H](CCCNC(=N)N)NC(=O)[C@H](Cc1ccc(OC)cc1)NC(=O)[C@H](CCCCNC(=N)N)NC(=O)[C@H](C)NC(=O)[C@@H](NC(=O)[C@H](Cc1c(F)c(F)c(F)c(F)c1F)NC(=O)[C@@H](NC(=O)[C@H](C)NC(=O)[C@H](CC(=O)O)NC(=O)[C@@H](CCCNC(=N)N)NC(=O)[C@H](Cc1ccc(O)cc1)NC(=O)CCCCCCCCCCCNC(=O)Cc1c(F)c(F)c(F)c(F)c1F)[C@@H](C)CC)[C@@H](C)O)C(C)C)[C@@H](C)CC)C(=O)N[C@H](CCCNC(=N)N)C(=O)N[C@@H](CCCCNC(=N)N)C(=O)NC [AVR-235] ({Phenylacetyl(2,3,4,5,6-F5)-12Ado}-Y[dR]DAI[Phe(F5)]TA[hArg]Y(Me)RKVL[Abu]QLSARKLLQDI[Nle][dR][hArg]-NHMe)
- relative inhibitory potency in comparison to MIA-602, Urothelial J82 [1]: 1.518

Structure (SMILES): CCCC[C@H](NC(=O)[C@@H](NC(=O)[C@H](CC(=O)O)NC(=O)[C@H](CCC(N)=O)NC(=O)[C@H](CC(C)C)NC(=O)[C@H](CC(C)C)NC(=O)[C@H](CCCCN)NC(=O)[C@H](CCCNC(=N)N)NC(=O)[C@H](C)NC(=O)[C@H](CO)NC(=O)[C@H](CC(C)C)NC(=O)[C@H](CCC(N)=O)NC(=O)[C@H](CC)NC(=O)[C@H](CC(C)C)NC(=O)[C@@H](NC(=O)[C@H](CCCCN)NC(=O)[C@H](CCCNC(=N)N)NC(=O)[C@H](Cc1ccc(OC)cc1)NC(=O)[C@H](CCCCNC(=N)N)NC(=O)[C@H](CC(N)=O)NC(=O)[C@@H](NC(=O)[C@H](Cc1ccc(Cl)cc1)NC(=O)[C@@H](NC(=O)[C@H](C)NC(=O)[C@H](CC(=O)O)NC(=O)[C@@H](CCCNC(=N)N)NC(=O)[C@H](Cc1ccc(O)cc1)NC(=O)CCCCCCCCCCCNC(=O)Cc1c(F)c(F)c(F)c(F)c1F)[C@@H](C)CC)[C@@H](C)O)C(C)C)[C@@H](C)CC)C(=O)N[C@H](CCCNC(=N)N)C(=O)N[C@@H](CCCCNC(=N)N)C(=O)NCCCCCCCCCCCC(N)=O [AVR-333, 5FPhAC-Ada-Tyr-DArg-Asp-Ala-Ile-Cpa-Thr-Asn-Har-Tyr(Me)-Arg-Lys-Val-Leu-Abu-Gln-Leu-Ser-Ala-Arg-Lys-Leu-Leu-Gln-Asp-Ile-Nle-DArg-Har-Ada-NH2] ({Phenylacetyl(2,3,4,5,6-F5)-12Ado}-Y[dR]DAI[Phe(4-Cl)]TN[hArg]Y(Me)RKVL[Abu]QLSARKLLQDI[Nle][dR][hArg][12Ado]-NH2)
- Tumor Growth % [2]: 1384.4%
- % Inhibition ([2]; vs control): 48.2%

Structure (SMILES): CCCC[C@H](NC(=O)[C@@H](NC(=O)[C@H](CC(=O)O)NC(=O)[C@H](CCC(N)=O)NC(=O)[C@H](CC(C)C)NC(=O)[C@H](CC(C)C)NC(=O)[C@H](CCCCN)NC(=O)[C@H](CCCNC(=N)N)NC(=O)[C@H](C)NC(=O)[C@H](CO)NC(=O)[C@H](CC(C)C)NC(=O)[C@H](CCC(N)=O)NC(=O)[C@H](CC)NC(=O)[C@H](CC(C)C)NC(=O)[C@@H](NC(=O)[C@H](CCCCN)NC(=O)[C@H](CCCNC(=N)N)NC(=O)[C@H](Cc1c(F)c(F)c(F)c(F)c1F)NC(=O)[C@H](CCCCNC(=N)N)NC(=O)[C@H](C)NC(=O)[C@@H](NC(=O)[C@H](Cc1ccc(Cl)cc1)NC(=O)[C@@H](NC(=O)[C@H](C)NC(=O)[C@H](CC(=O)O)NC(=O)[C@@H](CCCNC(=N)N)NC(=O)[C@H](Cc1ccc(O)cc1)NC(=O)CCCCCCCCCCCNC(=O)Cc1c(F)c(F)c(F)c(F)c1F)[C@@H](C)CC)[C@@H](C)O)C(C)C)[C@@H](C)CC)C(=O)N[C@H](CCCNC(=N)N)C(=O)N[C@@H](CCCCNC(=N)N)C(=O)NCCCCCCCCCCCC(=O)NC [AVR-354] ({Phenylacetyl(2,3,4,5,6-F5)-12Ado}-Y[dR]DAI[Phe(4-Cl)]TA[hArg][Phe(F5)]RKVL[Abu]QLSARKLLQDI[Nle][dR][hArg][12Ado]-NHMe)
- In vitro relative inhibitory potency in comparison to MIA-602, HCC-1806 [3]: 3.991
- Tumor Growth % [4]: 680.2%
- % Inhibition ([4]; vs control): 43.1%
- Tumor Size (mm^3) [5]: 417.90 mm^3
- % Inhibition ([5]; vs control): 42.3%
